Species on record: Rattus norvegicus
Experiment: Open TG-GATES - Regimen: Daily Repeat
Type: toxicity, organism-based, Sprague-Dawley
Set-up: regimen Daily Repeat, gender Male, age 6 weeks
Details: in vivo, po, 0 mg/kg, route gavage, dose level Control; for APTT / Bas / Eos / Fbg / Hb / Ht / Lym / MCH / MCHC / MCV / Mono / Neu / PT / Plat / RBC / Ret / WBC: tissue Blood; for KIDNEY_L / KIDNEY_R / KIDNEY_TOTAL: tissue Kidney; for LIVER: tissue Liver; for A/G / ALP / ALT / AST / BUN / CRE / Ca / Cl / DBIL / GLC / IP / K / LDH / Na / PL / RALB / TBIL / TC / TG / TP / gamma-GTP: tissue Plasma

Molecule `COc1ccc(Cc2nccc3cc(OC)c(OC)cc23)cc1OC` [PAPAVERINE] has a TERMINAL_BW (72 h, time 3 day) of 240.5 g, an APTT (72 h, time 3 day) of 21.1 s and a Bas (72 h, time 3 day) of 0%. It also gave an Eos (72 h, time 3 day) of 1%, a Fbg (72 h, time 3 day) of 326.8 mg/dL and a Hb (72 h, time 3 day) of 13.5 g/dL. It also gave a Ht (72 h, time 3 day) of 40.7%, a Lym (72 h, time 3 day) of 81.2% and an MCH (72 h, time 3 day) of 21 pg. For the same molecule, the MCHC (72 h, time 3 day) was 33.4%, the MCV (72 h, time 3 day) was 63 fL and the Mono (72 h, time 3 day) was 2.2%. For the same molecule, the Neu (72 h, time 3 day) was 14.4%, the PT (72 h, time 3 day) was 15.8 s and the Plat (72 h, time 3 day) was 114.4 x10_4/uL. For the same molecule, the RBC (72 h, time 3 day) was 645.6 x10_4/ul, the Ret (72 h, time 3 day) was 6.6% and the WBC (72 h, time 3 day) was 105.4 x10_2/uL. For the same molecule, the KIDNEY_L (72 h, time 3 day) was 1 g, the KIDNEY_R (72 h, time 3 day) was 1 g and the KIDNEY_TOTAL (72 h, time 3 day) was 2 g. The LIVER (72 h, time 3 day) was 11.4 g, the A/G (72 h, time 3 day) was 1.2 and the ALP (72 h, time 3 day) was 1572.8 IU/L. The ALT (72 h, time 3 day) was 41.4 IU/L, the AST (72 h, time 3 day) was 70.2 IU/L and the BUN (72 h, time 3 day) was 16 mg/dL. It also gave a CRE (72 h, time 3 day) of 0.2 mg/dL, a Ca (72 h, time 3 day) of 11 mg/dL and a Cl (72 h, time 3 day) of 108.2 meq/L. For the same molecule, the DBIL (72 h, time 3 day) was 0 mg/dL, the GLC (72 h, time 3 day) was 202.2 mg/dL and the IP (72 h, time 3 day) was 7.2 mg/dL. For the same molecule, the K (72 h, time 3 day) was 4.2 meq/L, the LDH (72 h, time 3 day) was 171.6 IU/L and the Na (72 h, time 3 day) was 142.6 meq/L. It also gave a PL (72 h, time 3 day) of 136.4 mg/dL, an RALB (72 h, time 3 day) of 3 g/dL and a TBIL (72 h, time 3 day) of 0.004 mg/dL. It also gave a TC (72 h, time 3 day) of 72 mg/dL, a TG (72 h, time 3 day) of 116 mg/dL and a TP (72 h, time 3 day) of 5.5 g/dL. It also gave a gamma-GTP (72 h, time 3 day) of 1.2 IU/L, a TERMINAL_BW ([…], time 7 day) of 267.4 g and a TERMINAL_BW ([…], time 14 day) of 326.9 g. It also gave a TERMINAL_BW ([…], time 28 day) of 413.6 g, an APTT ([…], time 7 day) of 23.2 s and a Bas ([…], time 7 day) of 0%. For the same molecule, the Eos ([…], time 7 day) was 0.8%, the Fbg ([…], time 7 day) was 299 mg/dL and the Hb ([…], time 7 day) was 13.7 g/dL. The Ht ([…], time 7 day) was 40.3%, the Lym ([…], time 7 day) was 80% and the MCH ([…], time 7 day) was 21 pg. It also gave an MCHC ([…], time 7 day) of 34.1%, an MCV ([…], time 7 day) of 61.6 fL and a Mono ([…], time 7 day) of 2.8%. The Neu ([…], time 7 day) was 14.8%, the PT ([…], time 7 day) was 15.7 s and the Plat ([…], time 7 day) was 111.7 x10_4/uL. The RBC ([…], time 7 day) was 654 x10_4/ul, the Ret ([…], time 7 day) was 5.6% and the WBC ([…], time 7 day) was 125.6 x10_2/uL. It also gave an APTT ([…], time 14 day) of 22.8 s, a Bas ([…], time 14 day) of 0% and an Eos ([…], time 14 day) of 1%. The Fbg ([…], time 14 day) was 316.8 mg/dL, the Hb ([…], time 14 day) was 14.6 g/dL and the Ht ([…], time 14 day) was 42.7%. For the same molecule, the Lym ([…], time 14 day) was 82%, the MCH ([…], time 14 day) was 20.7 pg and the MCHC ([…], time 14 day) was 34.1%. For the same molecule, the MCV ([…], time 14 day) was 60.5 fL, the Mono ([…], time 14 day) was 2.2% and the Neu ([…], time 14 day) was 13.2%. For the same molecule, the PT ([…], time 14 day) was 15.5 s, the Plat ([…], time 14 day) was 107 x10_4/uL and the RBC ([…], time 14 day) was 707 x10_4/ul. It also gave a Ret ([…], time 14 day) of 5%, a WBC ([…], time 14 day) of 120 x10_2/uL and an APTT ([…], time 28 day) of 24.6 s. The Bas ([…], time 28 day) was 0%, the Eos ([…], time 28 day) was 1.6% and the Fbg ([…], time 28 day) was 315.8 mg/dL. The Hb ([…], time 28 day) was 14.5 g/dL, the Ht ([…], time 28 day) was 43.8% and the Lym ([…], time 28 day) was 77.8%. For the same molecule, the MCH ([…], time 28 day) was 18.7 pg, the MCHC ([…], time 28 day) was 33% and the MCV ([…], time 28 day) was 56.6 fL. The Mono ([…], time 28 day) was 2%, the Neu ([…], time 28 day) was 17.8% and the PT ([…], time 28 day) was 16 s. It also gave a Plat ([…], time 28 day) of 101.3 x10_4/uL, an RBC ([…], time 28 day) of 775 x10_4/ul and a Ret ([…], time 28 day) of 3%. The WBC ([…], time 28 day) was 123.2 x10_2/uL, the KIDNEY_L ([…], time 7 day) was 1.1 g and the KIDNEY_R ([…], time 7 day) was 1.1 g. The KIDNEY_TOTAL ([…], time 7 day) was 2.2 g, the KIDNEY_L ([…], time 14 day) was 1.2 g and the KIDNEY_R ([…], time 14 day) was 1.3 g. It also gave a KIDNEY_TOTAL ([…], time 14 day) of 2.5 g, a KIDNEY_L ([…], time 28 day) of 1.4 g and a KIDNEY_R ([…], time 28 day) of 1.5 g. For the same molecule, the KIDNEY_TOTAL ([…], time 28 day) was 3 g, the LIVER ([…], time 7 day) was 12.1 g and the LIVER ([…], time 14 day) was 14.2 g. The LIVER ([…], time 28 day) was 16.8 g, the A/G ([…], time 7 day) was 1.2 and the ALP ([…], time 7 day) was 1358 IU/L. It also gave an ALT ([…], time 7 day) of 47 IU/L, an AST ([…], time 7 day) of 82.2 IU/L and a BUN ([…], time 7 day) of 19.4 mg/dL. It also gave a CRE ([…], time 7 day) of 0.2 mg/dL, a Ca ([…], time 7 day) of 10.3 mg/dL and a Cl ([…], time 7 day) of 107.2 meq/L. The DBIL ([…], time 7 day) was 0 mg/dL, the GLC ([…], time 7 day) was 203.2 mg/dL and the IP ([…], time 7 day) was 6.7 mg/dL. For the same molecule, the K ([…], time 7 day) was 4.4 meq/L, the LDH ([…], time 7 day) was 248.2 IU/L and the Na ([…], time 7 day) was 140.4 meq/L. It also gave a PL ([…], time 7 day) of 148.8 mg/dL, an RALB ([…], time 7 day) of 3 g/dL and a TBIL ([…], time 7 day) of 0 mg/dL. For the same molecule, the TC ([…], time 7 day) was 75 mg/dL, the TG ([…], time 7 day) was 101.6 mg/dL and the TP ([…], time 7 day) was 5.5 g/dL. For the same molecule, the gamma-GTP ([…], time 7 day) was 2 IU/L, the A/G ([…], time 14 day) was 1.1 and the ALP ([…], time 14 day) was 1381.4 IU/L. For the same molecule, the ALT ([…], time 14 day) was 42.2 IU/L, the AST ([…], time 14 day) was 67 IU/L and the BUN ([…], time 14 day) was 17.6 mg/dL. For the same molecule, the CRE ([…], time 14 day) was 0.2 mg/dL, the Ca ([…], time 14 day) was 10.5 mg/dL and the Cl ([…], time 14 day) was 106.6 meq/L. The DBIL ([…], time 14 day) was 0 mg/dL, the GLC ([…], time 14 day) was 199.6 mg/dL and the IP ([…], time 14 day) was 6.7 mg/dL. It also gave a K ([…], time 14 day) of 4.4 meq/L, an LDH ([…], time 14 day) of 164.6 IU/L and a Na ([…], time 14 day) of 142.8 meq/L. For the same molecule, the PL ([…], time 14 day) was 148.4 mg/dL, the RALB ([…], time 14 day) was 3 g/dL and the TBIL ([…], time 14 day) was 0.016 mg/dL. The TC ([…], time 14 day) was 78.4 mg/dL, the TG ([…], time 14 day) was 119.2 mg/dL and the TP ([…], time 14 day) was 5.7 g/dL. It also gave a gamma-GTP ([…], time 14 day) of 2.4 IU/L, an A/G ([…], time 28 day) of 1.1 and an ALP ([…], time 28 day) of 1231 IU/L. It also gave an ALT ([…], time 28 day) of 44.4 IU/L, an AST ([…], time 28 day) of 68.2 IU/L and a BUN ([…], time 28 day) of 20 mg/dL. For the same molecule, the CRE ([…], time 28 day) was 0.2 mg/dL, the Ca ([…], time 28 day) was 10.2 mg/dL and the Cl ([…], time 28 day) was 105 meq/L. The DBIL ([…], time 28 day) was 0 mg/dL, the GLC ([…], time 28 day) was 211.4 mg/dL and the IP ([…], time 28 day) was 6.2 mg/dL. It also gave a K ([…], time 28 day) of 4.1 meq/L, an LDH ([…], time 28 day) of 160.4 IU/L and a Na ([…], time 28 day) of 141.4 meq/L. The PL ([…], time 28 day) was 147.4 mg/dL, the RALB ([…], time 28 day) was 3.1 g/dL and the TBIL ([…], time 28 day) was 0.008 mg/dL. For the same molecule, the TC ([…], time 28 day) was 73.6 mg/dL, the TG ([…], time 28 day) was 132.6 mg/dL and the TP ([…], time 28 day) was 5.8 g/dL. It also gave a gamma-GTP ([…], time 28 day) of 3.2 IU/L.

Reference: ChEMBL document CHEMBL3885861, “Open TG-GATES”
